Measurements: ChEMBL document CHEMBL1201862, “PubChem BioAssay data set” (2004)
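The compound was tested at five concentrations on cells cultured in 96-well plates, with a 48-hour exposure period. At the GI50, growth is halved.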 The source made the active and inactive calls. Cut-off read from the data, not from the text of the source: active = GI50 up to about 1.1 µM and inactive = higher.

Key:
Test in all cases: NCI anticancer screen, dose series, 48 h
[1] = test system: NCI-H23
[2] = test system: EKVX
[3] = test system: SK-MEL-5
[4] = test system: SK-MEL-2
[5] = test system: Malme-3M
[6] = test system: TK-10
[7] = test system: UACC-257
[8] = test system: M14
[9] = test system: HOP-92
[10] = test system: A498
[11] = test system: SK-OV-3
[12] = test system: RPMI-8226
[13] = test system: HT-29
[14] = test system: UACC-62
[15] = test system: NCI/ADR-RES
[16] = test system: HCT-116
[17] = test system: SW-620
[18] = test system: K562
[19] = test system: CCRF-CEM
[20] = test system: MCF7
[21] = test system: SF-268
[22] = test system: T47D
[23] = test system: SF-295
[24] = test system: NCI-H460
[25] = test system: MDA-MB-435
[26] = test system: A549
[27] = test system: PC-3
[28] = test system: OVCAR-3
[29] = test system: HOP-62
[30] = test system: BT-549
[31] = test system: OVCAR-8
[32] = test system: SNB-75
[33] = test system: SK-MEL-28
[34] = test system: DU-145
[35] = test system: MDA-MB-231
[36] = test system: SNB-19
[37] = test system: NCI-H522
[38] = test system: KM12
[39] = test system: OVCAR-4
[40] = test system: SN12C
[41] = test system: Hs-578T
[42] = test system: CAKI-1
[43] = test system: LOX IMVI
[44] = test system: 786-0
[45] = test system: NCI-H226
[46] = test system: UO-31
[47] = test system: HCT-15
[48] = test system: SF-539
[49] = test system: IGROV-1
[50] = test system: ACHN
[51] = test system: HCC 2998
[52] = test system: COLO 205
[53] = test system: OVCAR-5
[54] = test system: U-251
[55] = test system: SR
[56] = test system: MOLT-4
[57] = test system: RXF 393
[58] = test system: HL-60

Q: Which results are given for `O=C(/C=C/c1ccc(Cl)cc1)c1nc2ccccc2[nH]1`?
A: GI50 [1]: 48.8 µM (inactive); GI50 [2]: 25.7 µM (inactive); GI50 [3]: 40.2 µM (inactive); GI50 [4]: > 100 µM (inactive); GI50 [5]: > 100 µM (inactive); GI50 [6]: 14.5 µM (inactive); GI50 [7]: 29 µM (inactive); GI50 [8]: 31.8 µM (inactive); GI50 [9]: > 100 µM (inactive); GI50 [10]: 37.8 µM (inactive); GI50 [11]: 21.7 µM (inactive); GI50 [12]: 2.19 µM (inactive); GI50 [13]: 21.5 µM (inactive); GI50 [14]: 35.9 µM (inactive); GI50 [15]: 42.5 µM (inactive); GI50 [16]: 16.7 µM (inactive); GI50 [17]: 13.4 µM (inactive); GI50 [18]: 5.58 µM (inactive); GI50 [19]: 3.54 µM (inactive); GI50 [20]: 2.22 µM (inactive); GI50 [21]: 14.2 µM (inactive); GI50 [22]: 5.78 µM (inactive); GI50 [23]: 22 µM (inactive); GI50 [24]: 53 µM (inactive); GI50 [25]: 12.2 µM (inactive); GI50 [26]: 25.4 µM (inactive); GI50 [27]: 19.9 µM (inactive); GI50 [28]: 12.9 µM (inactive); GI50 [29]: 17.6 µM (inactive); GI50 [30]: 32.9 µM (inactive); GI50 [31]: 34.8 µM (inactive); GI50 [32]: 11.7 µM (inactive); GI50 [33]: 32.4 µM (inactive); GI50 [34]: 12.3 µM (inactive); GI50 [35]: 23.1 µM (inactive); GI50 [36]: 34.6 µM (inactive); GI50 [37]: 28.2 µM (inactive); GI50 [38]: 1.6 µM (inactive); GI50 [39]: 19 µM (inactive); GI50 [40]: 37.2 µM (inactive); GI50 [41]: 72.1 µM (inactive); GI50 [42]: 3.44 µM (inactive); GI50 [43]: 15.2 µM (inactive); GI50 [44]: 13 µM (inactive); GI50 [45]: 27.5 µM (inactive); GI50 [46]: 10.9 µM (inactive); GI50 [47]: 17.5 µM; GI50 [48]: 6.98 µM (inactive); GI50 [49]: 38.6 µM (inactive); GI50 [50]: 48.9 µM (inactive); GI50 [51]: 12.8 µM (inactive); GI50 [52]: 16.6 µM (inactive); GI50 [53]: 95.7 µM (inactive)

Q: How did the GI50 [1] turn out when `Nc1nc(NCC2(CO)CC2)cc(=O)[nH]1` was run?
A: Its GI50 is > 100 µM (inactive).

Q: And the GI50 [2]?
A: Its GI50 is > 100 µM (inactive).

Q: And the GI50 [3]?
A: The GI50 was > 100 µM (inactive).

Q: And the GI50 [54]?
A: Its GI50 is > 100 µM (inactive).

Q: What about the GI50 [4] of the same compound?
A: Its GI50 is > 100 µM (inactive).

Q: And the GI50 [5]?
A: Its GI50 is > 100 µM (inactive).

Q: And the GI50 [7]?
A: Its GI50 is > 100 µM (inactive).

Q: And the GI50 [8]?
A: Its GI50 is > 100 µM (inactive).

Q: What about the GI50 [9] of the same compound?
A: Its GI50 is > 100 µM (inactive).

Q: And the GI50 [55]?
A: Its GI50 is > 100 µM (inactive).

Q: What about the GI50 [10] of the same compound?
A: Its GI50 is > 100 µM (inactive).

Q: What about the GI50 [11] of the same compound?
A: Its GI50 is > 100 µM (inactive).

Q: What about the GI50 [12] of the same compound?
A: The GI50 was > 100 µM (inactive).

Q: And the GI50 [13]?
A: The GI50 was > 100 µM (inactive).

Q: What about the GI50 [14] of the same compound?
A: The GI50 was > 100 µM (inactive).

Q: And the GI50 [15]?
A: Its GI50 is > 100 µM (inactive).

Q: What about the GI50 [16] of the same compound?
A: The GI50 was > 100 µM (inactive).

Q: And the GI50 [17]?
A: The GI50 was > 100 µM (inactive).

Q: What about the GI50 [18] of the same compound?
A: The GI50 was > 100 µM (inactive).

Q: And the GI50 [19]?
A: The GI50 was > 100 µM (inactive).

Q: And the GI50 [20]?
A: The GI50 was > 100 µM (inactive).

Q: What about the GI50 [21] of the same compound?
A: Its GI50 is > 100 µM (inactive).

Q: What about the GI50 [22] of the same compound?
A: The GI50 was > 100 µM (inactive).

Q: What about the GI50 [23] of the same compound?
A: The GI50 was > 100 µM (inactive).

Q: What about the GI50 [24] of the same compound?
A: The GI50 was > 100 µM (inactive).

Q: What about the GI50 [25] of the same compound?
A: The GI50 was > 100 µM (inactive).

Q: And the GI50 [26]?
A: Its GI50 is > 100 µM (inactive).

Q: And the GI50 [27]?
A: Its GI50 is > 100 µM (inactive).

Q: What about the GI50 [28] of the same compound?
A: The GI50 was > 100 µM (inactive).

Q: What about the GI50 [29] of the same compound?
A: Its GI50 is > 100 µM (inactive).

Q: What about the GI50 [30] of the same compound?
A: The GI50 was > 100 µM (inactive).

Q: And the GI50 [56]?
A: Its GI50 is > 100 µM (inactive).

Q: And the GI50 [31]?
A: The GI50 was > 100 µM (inactive).

Q: What about the GI50 [32] of the same compound?
A: Its GI50 is > 100 µM (inactive).

Q: What about the GI50 [33] of the same compound?
A: Its GI50 is > 100 µM (inactive).

Q: And the GI50 [57]?
A: Its GI50 is > 100 µM (inactive).

Q: What about the GI50 [34] of the same compound?
A: Its GI50 is > 100 µM (inactive).

Q: And the GI50 [35]?
A: The GI50 was > 100 µM (inactive).

Q: And the GI50 [36]?
A: The GI50 was > 100 µM (inactive).

Q: And the GI50 [37]?
A: Its GI50 is > 100 µM (inactive).

Q: And the GI50 [58]?
A: The GI50 was > 100 µM (inactive).

Q: What about the GI50 [38] of the same compound?
A: The GI50 was > 100 µM (inactive).

Q: And the GI50 [39]?
A: Its GI50 is > 100 µM (inactive).

Q: What about the GI50 [40] of the same compound?
A: The GI50 was > 100 µM (inactive).

Q: And the GI50 [41]?
A: Its GI50 is > 100 µM (inactive).

Q: What about the GI50 [42] of the same compound?
A: Its GI50 is > 100 µM (inactive).

Q: And the GI50 [43]?
A: Its GI50 is > 100 µM (inactive).

Q: And the GI50 [44]?
A: The GI50 was > 100 µM (inactive).

Q: What about the GI50 [45] of the same compound?
A: The GI50 was > 100 µM (inactive).

Q: What about the GI50 [46] of the same compound?
A: Its GI50 is > 100 µM (inactive).

Q: And the GI50 [47]?
A: Its GI50 is over 100 µM.

Q: And the GI50 [49]?
A: Its GI50 is > 100 µM (inactive).

Q: What about the GI50 [50] of the same compound?
A: Its GI50 is > 100 µM (inactive).

Q: What about the GI50 [51] of the same compound?
A: Its GI50 is > 100 µM (inactive).

Q: And the GI50 [52]?
A: Its GI50 is > 100 µM (inactive).

Q: What about the GI50 [53] of the same compound?
A: The GI50 was > 100 µM (inactive).
